In patent publication US11427574B2, “Compounds for treating Rac-GTPase mediated disorder” (Children's Medical Center Corporation, priority 2015, dated 2022):
pIC50: −log10 of the molar value.

Assays:
Loucy cells = assay: Proliferation assay in Loucy leukemia cells; format: cell-based; settings: read-out: IC50, inhibition of proliferation
Description: Dose Dependent Inhibition of Proliferation The 100 compounds selected from the initial in silico screen were assayed for inhibition of proliferation in two leukemia cell lines, SEM and P12 by Cell Titer Glo. The cells for the proliferation assay were spun down and re-suspended. The cell suspension was then divided and the compound to be tested added in desired concentrations and subsequently plated. Following an incubation period, the Cell Titer Glo reagent (Promega CellTiter 96® Aqueous Non-Radioactive Cell Proliferation Assay) was added and allowed to incubate. The absorbance is subsequently measured at 490 nm using a plate reader. Each compound was analyzed for its effects on cell proliferation.
The lead compound, i.e. Compound 1, was analyzed for its effect on cell proliferation at various doses on three different leukemia cell lines: SEM, P12, and Loucy. In order to quantitate the percentage inhibition of cell proliferation, Cell Titer Glo analysis was completed as described in Example 2 above.
(§1) FIGS. 3a-3c show three graphs illustrating the dose dependent inhibition of proliferation of Compound 1 in SEM, P12, and Loucy cells as measured by MTS assay. […] Compound 1 was further analyzed for its effect on cell apoptosis and cell death using a flow based assay using Annexin V staining.

P12 cell line = assay: Annexin V flow assay for apoptosis and cell death, P12; format: cell-based; settings: Annexin V staining
Excerpt: as §1

AKT1 (PKB alpha) = AKT1 (PKB alpha) (Homo sapiens, UniProt P31749); assay: Kinase screening; format: biochemical
Description: (§2) Compound 1 was tested for its efficacy in inhibiting activities of 40 kinases and binding with 12 GPCRs both as an antagonist and an agonist.

CDC42 BPA (MRCKA) = CDC42 BPA (MRCKA) (Homo sapiens, UniProt Q5VT25); assay: Kinase screening; format: biochemical
Description: as §2

CDC42 BPB (MRCKB) = CDC42 BPB (MRCKB) (Homo sapiens, UniProt Q9Y5S2); assay: Kinase screening; format: biochemical
CDC42 BPB (MRCKB), sequence (Q9Y5S2 whole entry, species assumed): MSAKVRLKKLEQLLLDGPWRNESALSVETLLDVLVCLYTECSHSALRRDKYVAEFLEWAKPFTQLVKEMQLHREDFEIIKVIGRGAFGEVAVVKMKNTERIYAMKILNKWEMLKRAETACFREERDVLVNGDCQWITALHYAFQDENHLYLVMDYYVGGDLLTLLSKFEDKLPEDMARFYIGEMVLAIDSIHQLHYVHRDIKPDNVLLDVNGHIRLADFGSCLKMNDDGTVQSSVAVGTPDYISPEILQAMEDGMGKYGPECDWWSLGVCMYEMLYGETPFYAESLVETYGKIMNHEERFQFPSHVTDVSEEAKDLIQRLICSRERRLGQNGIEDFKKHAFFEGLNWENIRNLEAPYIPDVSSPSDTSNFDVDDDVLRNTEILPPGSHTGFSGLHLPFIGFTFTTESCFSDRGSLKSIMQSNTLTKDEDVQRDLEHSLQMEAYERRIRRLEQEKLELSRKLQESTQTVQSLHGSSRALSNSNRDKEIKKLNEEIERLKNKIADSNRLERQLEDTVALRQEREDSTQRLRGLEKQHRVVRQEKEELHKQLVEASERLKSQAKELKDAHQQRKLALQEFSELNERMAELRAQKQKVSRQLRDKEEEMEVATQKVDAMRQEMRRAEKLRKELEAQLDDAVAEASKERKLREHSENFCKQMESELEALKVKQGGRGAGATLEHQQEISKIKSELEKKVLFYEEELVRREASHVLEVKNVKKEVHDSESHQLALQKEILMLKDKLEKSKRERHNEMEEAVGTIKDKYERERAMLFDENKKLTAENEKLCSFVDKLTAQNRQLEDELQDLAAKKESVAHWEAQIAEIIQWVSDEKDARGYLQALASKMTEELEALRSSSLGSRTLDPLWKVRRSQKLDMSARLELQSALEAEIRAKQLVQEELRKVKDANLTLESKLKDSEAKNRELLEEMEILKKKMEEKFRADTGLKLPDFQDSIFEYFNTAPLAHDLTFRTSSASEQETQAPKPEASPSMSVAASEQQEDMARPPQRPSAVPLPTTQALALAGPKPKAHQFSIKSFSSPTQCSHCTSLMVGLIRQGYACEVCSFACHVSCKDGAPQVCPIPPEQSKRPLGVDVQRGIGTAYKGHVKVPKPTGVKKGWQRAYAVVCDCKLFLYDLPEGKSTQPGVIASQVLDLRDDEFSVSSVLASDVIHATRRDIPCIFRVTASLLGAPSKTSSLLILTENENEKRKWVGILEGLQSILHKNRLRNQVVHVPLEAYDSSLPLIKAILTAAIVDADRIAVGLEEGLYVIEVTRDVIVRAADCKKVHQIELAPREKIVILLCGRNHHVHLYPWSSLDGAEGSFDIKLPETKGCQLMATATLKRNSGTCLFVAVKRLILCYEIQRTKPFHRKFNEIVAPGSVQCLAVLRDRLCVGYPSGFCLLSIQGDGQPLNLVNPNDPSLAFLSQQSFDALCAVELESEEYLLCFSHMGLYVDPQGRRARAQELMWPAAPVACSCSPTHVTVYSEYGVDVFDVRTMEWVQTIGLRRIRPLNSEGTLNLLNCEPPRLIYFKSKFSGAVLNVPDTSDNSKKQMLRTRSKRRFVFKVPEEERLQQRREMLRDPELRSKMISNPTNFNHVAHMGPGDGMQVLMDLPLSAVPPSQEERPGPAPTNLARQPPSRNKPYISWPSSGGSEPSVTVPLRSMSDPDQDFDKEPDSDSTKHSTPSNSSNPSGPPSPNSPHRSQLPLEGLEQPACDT
Description: as §2

CDK5/p25 = CDK5/p25 (Homo sapiens, UniProt Q00535); assay: Kinase screening; format: biochemical
CDK5/p25, sequence (Q00535 whole entry, species assumed): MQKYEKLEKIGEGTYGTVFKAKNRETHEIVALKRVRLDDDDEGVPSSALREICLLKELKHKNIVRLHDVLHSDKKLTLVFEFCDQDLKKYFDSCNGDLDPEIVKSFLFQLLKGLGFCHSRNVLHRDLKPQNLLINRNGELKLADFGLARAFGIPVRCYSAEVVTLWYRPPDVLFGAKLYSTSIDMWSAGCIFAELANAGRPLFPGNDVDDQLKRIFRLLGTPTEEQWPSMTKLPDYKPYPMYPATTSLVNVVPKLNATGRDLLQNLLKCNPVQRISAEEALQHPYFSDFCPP
CDK5/p25, sequence (Q15078 99-307 partner limits assumed, species assumed): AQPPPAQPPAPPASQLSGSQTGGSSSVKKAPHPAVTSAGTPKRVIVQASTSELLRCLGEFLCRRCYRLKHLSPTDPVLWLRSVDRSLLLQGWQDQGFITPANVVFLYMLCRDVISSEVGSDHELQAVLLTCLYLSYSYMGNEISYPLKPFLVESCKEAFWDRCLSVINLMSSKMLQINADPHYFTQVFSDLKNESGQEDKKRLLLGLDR
Description: as §2

EGFR (ErbB1) = EGFR (ErbB1) (Homo sapiens, UniProt P00533); assay: Kinase screening; format: biochemical
Description: as §2

FLT3 = FLT3 (Homo sapiens, UniProt P36888); assay: Kinase screening; format: biochemical
Description: as §2

FRAP1 (mTOR) = FRAP1 (mTOR) (Homo sapiens, UniProt P42345); assay: Kinase screening; format: biochemical
Description: as §2

KIT = KIT (Homo sapiens, UniProt P10721); assay: Kinase screening; format: biochemical
Description: as §2

LIMK1 = LIMK1 (Homo sapiens, UniProt P53667); assay: Kinase screening; format: biochemical
Description: as §2

MAP2K2 (MEK2) = MAP2K2 (MEK2) (Homo sapiens, UniProt P36507); assay: Kinase screening; format: biochemical
MAP2K2 (MEK2), sequence (P36507 whole entry, species assumed): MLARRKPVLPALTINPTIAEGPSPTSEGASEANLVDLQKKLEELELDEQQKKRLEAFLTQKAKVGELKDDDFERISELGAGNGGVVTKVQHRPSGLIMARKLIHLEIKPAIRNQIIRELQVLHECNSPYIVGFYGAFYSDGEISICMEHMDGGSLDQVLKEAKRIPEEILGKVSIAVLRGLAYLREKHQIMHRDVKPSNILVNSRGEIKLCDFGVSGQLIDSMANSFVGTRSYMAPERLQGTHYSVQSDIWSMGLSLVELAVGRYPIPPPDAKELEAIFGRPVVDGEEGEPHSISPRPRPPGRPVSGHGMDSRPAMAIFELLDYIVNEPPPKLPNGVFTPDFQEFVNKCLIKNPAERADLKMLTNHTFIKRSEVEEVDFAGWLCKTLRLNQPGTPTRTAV
Description: as §2

MAP3K2 (MEKK2) = MAP3K2 (MEKK2) (Homo sapiens, UniProt Q9Y2U5); assay: Kinase screening; format: biochemical
Description: as §2

MAPK8 (JNK1) = MAPK8 (JNK1) (Homo sapiens, UniProt P45983); assay: Kinase screening; format: biochemical
MAPK8 (JNK1), sequence (P45983 whole entry, species assumed): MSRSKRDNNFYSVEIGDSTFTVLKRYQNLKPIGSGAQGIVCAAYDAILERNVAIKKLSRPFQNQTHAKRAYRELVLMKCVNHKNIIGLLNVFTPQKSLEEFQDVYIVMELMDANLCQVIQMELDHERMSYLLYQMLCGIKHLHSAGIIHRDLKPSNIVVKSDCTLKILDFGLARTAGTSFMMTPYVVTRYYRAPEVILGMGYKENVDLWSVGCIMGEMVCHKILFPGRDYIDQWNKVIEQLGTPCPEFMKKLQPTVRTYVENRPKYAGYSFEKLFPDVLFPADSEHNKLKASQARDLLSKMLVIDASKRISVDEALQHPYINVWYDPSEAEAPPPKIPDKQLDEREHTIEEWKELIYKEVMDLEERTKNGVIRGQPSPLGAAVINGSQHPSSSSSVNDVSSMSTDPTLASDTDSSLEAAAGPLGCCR
Description: as §2

MAPK9 (JNK2) = MAPK9 (JNK2) (Homo sapiens, UniProt P45984); assay: Kinase screening; format: biochemical
Description: as §2

MYLK (MLCK) = MYLK (MLCK) (Homo sapiens, UniProt Q15746); assay: Kinase screening; format: biochemical
Description: as §2

PAK1 = PAK1 (Homo sapiens, UniProt Q13153); assay: Kinase screening; format: biochemical
PAK1, sequence (Q13153 whole entry): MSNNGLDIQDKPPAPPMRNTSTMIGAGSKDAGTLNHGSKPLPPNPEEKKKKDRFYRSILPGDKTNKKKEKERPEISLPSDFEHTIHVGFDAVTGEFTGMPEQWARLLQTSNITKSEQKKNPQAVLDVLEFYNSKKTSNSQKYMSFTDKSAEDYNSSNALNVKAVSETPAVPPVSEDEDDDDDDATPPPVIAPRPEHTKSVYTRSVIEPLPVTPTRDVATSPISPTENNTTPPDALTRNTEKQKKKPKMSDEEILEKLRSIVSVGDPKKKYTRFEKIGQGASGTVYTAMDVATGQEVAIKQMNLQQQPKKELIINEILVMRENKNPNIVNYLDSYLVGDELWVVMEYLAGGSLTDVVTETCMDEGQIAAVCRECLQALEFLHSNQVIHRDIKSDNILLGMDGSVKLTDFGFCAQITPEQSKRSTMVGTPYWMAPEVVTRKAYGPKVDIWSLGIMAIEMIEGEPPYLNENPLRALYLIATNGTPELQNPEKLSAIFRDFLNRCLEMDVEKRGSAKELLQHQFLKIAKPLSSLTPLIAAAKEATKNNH
Description: as §2

PAK2 (PAK65) = PAK2 (PAK65) (Homo sapiens, UniProt Q13177); assay: Kinase screening; format: biochemical
PAK2 (PAK65), sequence (Q13177 whole entry, species assumed): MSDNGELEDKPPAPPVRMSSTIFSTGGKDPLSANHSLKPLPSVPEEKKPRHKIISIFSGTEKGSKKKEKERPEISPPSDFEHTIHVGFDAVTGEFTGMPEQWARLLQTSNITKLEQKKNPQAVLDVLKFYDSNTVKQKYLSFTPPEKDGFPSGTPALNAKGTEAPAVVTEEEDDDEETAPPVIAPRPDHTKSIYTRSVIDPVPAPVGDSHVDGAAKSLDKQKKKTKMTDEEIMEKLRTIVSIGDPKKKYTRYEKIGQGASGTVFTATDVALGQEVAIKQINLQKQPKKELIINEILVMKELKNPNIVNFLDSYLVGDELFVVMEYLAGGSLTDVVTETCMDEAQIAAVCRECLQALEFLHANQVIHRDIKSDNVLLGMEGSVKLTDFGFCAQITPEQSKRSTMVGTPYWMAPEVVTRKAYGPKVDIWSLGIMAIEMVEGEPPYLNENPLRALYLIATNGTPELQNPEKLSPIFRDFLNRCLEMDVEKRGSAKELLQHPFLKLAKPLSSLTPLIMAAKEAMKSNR
Description: as §2

PAK3 = PAK3 (Homo sapiens, UniProt O75914); assay: Kinase screening; format: biochemical
PAK3, sequence (O75914 whole entry, species assumed): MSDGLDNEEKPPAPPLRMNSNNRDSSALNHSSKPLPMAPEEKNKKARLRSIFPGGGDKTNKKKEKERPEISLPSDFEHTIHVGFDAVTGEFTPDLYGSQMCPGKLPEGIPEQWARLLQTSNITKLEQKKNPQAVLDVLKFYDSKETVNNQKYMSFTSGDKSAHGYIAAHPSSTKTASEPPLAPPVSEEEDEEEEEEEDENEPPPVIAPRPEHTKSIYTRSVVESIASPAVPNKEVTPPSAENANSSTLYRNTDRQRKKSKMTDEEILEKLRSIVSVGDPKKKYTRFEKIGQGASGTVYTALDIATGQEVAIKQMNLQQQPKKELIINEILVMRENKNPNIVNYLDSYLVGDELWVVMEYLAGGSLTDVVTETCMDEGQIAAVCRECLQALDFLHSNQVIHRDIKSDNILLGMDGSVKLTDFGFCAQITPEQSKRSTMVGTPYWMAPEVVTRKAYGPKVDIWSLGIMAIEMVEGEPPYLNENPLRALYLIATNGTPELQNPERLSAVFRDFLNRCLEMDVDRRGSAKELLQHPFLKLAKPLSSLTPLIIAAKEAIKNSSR
Description: as §2

PAK4 = PAK4 (Homo sapiens, UniProt O96013); assay: Kinase screening; format: biochemical
Description: as §2

PAK6 = PAK6 (Homo sapiens, UniProt Q9NQU5); assay: Kinase screening; format: biochemical
Description: as §2

PAK7 (KIAA1264) = PAK7 (KIAA1264) (Homo sapiens, UniProt Q9P286); assay: Kinase screening; format: biochemical
Description: as §2

PDGFRA (PDGFR alpha) = PDGFRA (PDGFR alpha) (Homo sapiens, UniProt P16234); assay: Kinase screening; format: biochemical
Description: as §2

PIK3C2B (PI3K-C2 beta) = PIK3C2B (PI3K-C2 beta) (Homo sapiens, UniProt O00750); assay: Kinase screening; format: biochemical
Description: as §2

PIK3C3 (hVPS34) = PIK3C3 (hVPS34) (Homo sapiens, UniProt Q8NEB9); assay: Kinase screening; format: biochemical
Description: as §2

[1] = molecular target: PIK3CA/PIK3R1 (p110 alpha/p85 alpha) (Homo sapiens, UniProt P42336); assay: Kinase screening; format: biochemical
Description: as §2

[2] = molecular target: PIK3CD/PIK3R1 (p110 delta/p85 alpha) (Homo sapiens, UniProt O00329); assay: Kinase screening; format: biochemical
Description: as §2

ROCK1 = ROCK1 (Homo sapiens, UniProt Q13464); assay: Kinase screening; format: biochemical
Description: as §2

ROCK2 = ROCK2 (Homo sapiens, UniProt O75116); assay: Kinase screening; format: biochemical
Description: as §2

SRC = SRC (Homo sapiens, UniProt P12931); assay: Kinase screening; format: biochemical
Description: as §2

SYK = SYK (Homo sapiens, UniProt P43405); assay: Kinase screening; format: biochemical
Description: as §2

For `CCc1ccc(CN(C)C(=O)CCc2nnc(CCc3c[nH]c4ccccc34)o2)nc1` (racemic) [Compound 1], the pIC50 (Loucy cells) was 3.80, the “cell apoptosis and cell death” value (P12 cell line) was “caused cells apoptosis and cell death” and the inhibition percentage (AKT1 (PKB alpha)) was −6.7 percentage. It also gave an inhibition percentage (CDC42 BPA (MRCKA)) of 2.8 percentage, an inhibition percentage (CDC42 BPB (MRCKB)) of 3.3 percentage and an inhibition percentage (CDK5/p25) of 1.0 percentage. For the same molecule, the inhibition percentage (EGFR (ErbB1)) was −10.4 percentage, the inhibition percentage (FLT3) was −15.3 percentage and the inhibition percentage (FRAP1 (mTOR)) was 0.9 percentage. The inhibition percentage (KIT) was −4.2 percentage, the inhibition percentage (LIMK1) was −1.1 percentage and the inhibition percentage (MAP2K2 (MEK2)) was 13.3 percentage. The inhibition percentage (MAP3K2 (MEKK2)) was 5.9 percentage, the inhibition percentage (MAPK8 (JNK1)) was 0.4 percentage and the inhibition percentage (MAPK9 (JNK2)) was 10.9 percentage. It also gave an inhibition percentage (MYLK (MLCK)) of 1.2 percentage, an inhibition percentage (PAK1) of 22.7 percentage and an inhibition percentage (PAK2 (PAK65)) of −8.5 percentage. The inhibition percentage (PAK3) was −10.2 percentage, the inhibition percentage (PAK4) was 6.4 percentage and the inhibition percentage (PAK6) was −0.6 percentage. For the same molecule, the inhibition percentage (PAK7 (KIAA1264)) was −11.5 percentage, the inhibition percentage (PDGFRA (PDGFR alpha)) was 15.1 percentage and the inhibition percentage (PIK3C2B (PI3K-C2 beta)) was −10.9 percentage. For the same molecule, the inhibition percentage (PIK3C3 (hVPS34)) was −12.5 percentage, the inhibition percentage [1] was 11.0 percentage and the inhibition percentage [2] was 9.0 percentage. It also gave an inhibition percentage (ROCK1) of −4.6 percentage, an inhibition percentage (ROCK2) of −2.0 percentage and an inhibition percentage (SRC) of 8.7 percentage. The inhibition percentage (SYK) was 7.0 percentage.
